Tests used:
[1] = tested on: panel of cancer cell lines; test: BrdU assay, whole panel; type: cell-based, human; settings: cell line not named, highest value
Method: Since the inhibition of human DNA topoisomerase II should result in decreased proliferation of cancer cells, compounds 1-3 were tested using BrdU assay against a panel of cancer cell lines, including MCF-7 (estrogen-dependent human breast cancer cells), MDA-MB-231 (estrogen-independent human breast cancer cells), SCC-25 (squamous cell carcinoma of the tongue), FaDu (squamous cell carcinoma of the pharynx), A549 (human lung carcinoma), AGS (human gastric adenocarcinoma), LS-180, HT-29 (colon cancer cell lines), T98G (glioblastoma cells), and A375 (melanoma cells). Human normal skin fibroblasts (CRL-2072) were also used as a reference cell line. The BrdU assay allows quantification of cell proliferation since it measures incorporation of thymidine analogue (BrdU) during DNA replication. […] However, although the antiproliferative effect caused by 3 was mostly weaker (except for A549 and A375) than observed for 1, but the former compound was also characterised by lower toxicity against human normal cells. It results in selectivity index approaching 125 and 57, when it comes to lung cancer (A549) and melanoma cells (A375), respectively. […]

[2] = target: T1, human DNA topoisomerase IIα (Homo sapiens, UniProt P11388); test: Stabilisation of covalent DNA-enzyme cleavage complex (Topoisomerase II Drug Screening Kit); type: biochemical; settings: 50 µM (Figure S4), linear DNA cleavage intermediate
T1 construct: purchased Inspiralis Ltd, Norwich, UK
T1 sequence (P11388 whole entry): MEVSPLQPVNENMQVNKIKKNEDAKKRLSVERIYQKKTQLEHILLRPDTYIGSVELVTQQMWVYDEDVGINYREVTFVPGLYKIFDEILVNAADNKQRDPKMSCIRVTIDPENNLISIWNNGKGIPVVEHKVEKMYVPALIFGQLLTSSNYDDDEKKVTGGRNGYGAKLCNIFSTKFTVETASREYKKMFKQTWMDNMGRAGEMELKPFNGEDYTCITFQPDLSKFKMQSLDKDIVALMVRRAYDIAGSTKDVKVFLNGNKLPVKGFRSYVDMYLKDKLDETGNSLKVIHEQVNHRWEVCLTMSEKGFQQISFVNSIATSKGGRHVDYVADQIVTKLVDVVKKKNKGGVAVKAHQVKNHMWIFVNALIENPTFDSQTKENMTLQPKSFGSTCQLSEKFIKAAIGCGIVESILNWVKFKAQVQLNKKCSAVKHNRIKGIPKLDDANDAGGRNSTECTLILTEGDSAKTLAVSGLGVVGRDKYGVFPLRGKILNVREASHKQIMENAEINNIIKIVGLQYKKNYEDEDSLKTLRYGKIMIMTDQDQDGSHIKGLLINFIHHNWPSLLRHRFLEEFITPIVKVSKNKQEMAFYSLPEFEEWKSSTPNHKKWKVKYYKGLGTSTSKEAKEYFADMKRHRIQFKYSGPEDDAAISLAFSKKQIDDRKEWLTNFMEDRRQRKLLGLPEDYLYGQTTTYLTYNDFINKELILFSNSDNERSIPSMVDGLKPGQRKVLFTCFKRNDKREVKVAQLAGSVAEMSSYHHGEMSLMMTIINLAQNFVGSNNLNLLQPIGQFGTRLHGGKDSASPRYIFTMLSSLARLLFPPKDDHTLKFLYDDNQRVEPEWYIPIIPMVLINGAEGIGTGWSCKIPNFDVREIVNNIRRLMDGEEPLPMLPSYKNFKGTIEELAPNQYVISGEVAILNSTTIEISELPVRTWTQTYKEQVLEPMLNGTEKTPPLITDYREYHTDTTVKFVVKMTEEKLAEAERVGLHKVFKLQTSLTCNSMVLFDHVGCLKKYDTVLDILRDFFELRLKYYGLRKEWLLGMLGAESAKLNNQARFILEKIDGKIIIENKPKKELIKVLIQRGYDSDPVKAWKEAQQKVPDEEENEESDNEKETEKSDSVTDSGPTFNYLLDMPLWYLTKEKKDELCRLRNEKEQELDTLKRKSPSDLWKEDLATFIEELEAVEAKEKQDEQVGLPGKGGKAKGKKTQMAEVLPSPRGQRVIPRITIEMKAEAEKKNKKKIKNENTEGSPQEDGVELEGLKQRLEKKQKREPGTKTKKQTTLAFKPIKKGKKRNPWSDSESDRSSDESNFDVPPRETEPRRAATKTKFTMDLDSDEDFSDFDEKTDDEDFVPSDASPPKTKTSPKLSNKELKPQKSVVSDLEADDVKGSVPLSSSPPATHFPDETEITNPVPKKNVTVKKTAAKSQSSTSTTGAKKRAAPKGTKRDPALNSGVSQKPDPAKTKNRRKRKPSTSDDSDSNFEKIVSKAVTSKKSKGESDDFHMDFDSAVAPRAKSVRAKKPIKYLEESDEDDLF
Method: As relaxation of supercoiled DNA (scDNA) is one of numerous functions of topoisomerase IIα, so the appearance/disappearance of relaxed DNA bands during agarose gel electrophoresis can be used to identify compounds that inhibit the enzyme.
Determination of the inhibitory effect of compounds 1-10 against human topoisomerase Iiα was performed using Human Topoisomerase II Relaxation Assay (Inspiralis Ltd, Norwich, UK) and Topoisomerase II Drug Screening Kit (TopoGEN Inc., Buena Vista, CO, USA) following the manufacturer’s instructions. Briefly, the increased concentrations of the compounds were mixed with the reaction mixture, incubated according to the protocol and, after reaction termination, the samples were analysed by electrophoresis using 1% agarose gel containing […] of ethidium bromide in Tris-Acetate-EDTA (TAE) buffer. Visualisation of the bands was performed using an enhanced chemiluminescence system (Syngene G:BOX Chemi XT4, Cambridge, UK). For the quantitative determination of topoisomerase II inhibition, images were densitometrically scanned.
topoII + compound 4 (100 µM); lane 7: scDNA + topoII + compound 5 (100 µM); lane 8: scDNA + topoII
+ compound 6 (100µM); lane 9: scDNA + topoII + compound 7 (100 µM); lane 10: scDNA + topoII +
compound 8 (100µM); lane 11: scDNA + topoII + compound 9 (100µM); lane 12: scDNA + topoII +
Figure S4. […] Lane 1: scDNA; […]

Compound	antiproliferative activity, fold higher than that of etoposide [1]	stabilisation of the covalent DNA-enzyme cleavage complex [2]
CC(C)c1cccc(C(C)C)c1NC(=S)NNC(=O)Cc1cccc2ccccc12 [Compound 1, 4-(2,6-Diisopropylphenyl)-1-[(naphth-1-yl)acetyl]thiosemicarbazide]	≤ 90 fold	–
COc1cc([C@@H]2c3cc4c(cc3[C@@H](O[C@@H]3O[C@@H]5CO[C@@H](C)O[C@H]5[C@H](O)[C@H]3O)[C@H]3COC(=O)[C@H]23)OCO4)cc(OC)c1O [Etoposide, etoposide, reference compound]	–	able to stabilise the covalent DNA-enzyme cleavage complex

Reference: publication PMC9648375, “Identification of the first-in-class dual inhibitors of human DNA topoisomerase IIα and indoleamine-2,3-dioxygenase 1 (IDO 1) with strong anticancer properties” (Journal of Enzyme Inhibition and Medicinal Chemistry, 2022)
